# Assay results from patent US5321046A, “Hypocholesterolemic unsymmetrical dithiol ketals” (Bristol-Myers Squibb Company, priority 1992, dated 1994).
# Where two headings read alike, the source gives them in different places.
# Tests used:
# HepG2 cells = assay: HepG2 Cell Culture Model--14C-Acetate Incorporation Assay (cholesterol biosynthesis); format: cell-based; details: Homo sapiens
# Procedure: (a) Isolated Hepatocyte cholesterol biosynthesis assay: HepG2 Cell Culture Model--14C-Acetate Incorporation Assay
# HepG2 cells obtained from the American Type Culture Collection were routinely passed in RPMI-1640 plus 10% fetal bovine serum (FBS) and were subculture into 35 mm diameter wells for experiments. […] The LDS medium supplement was prepared according to Cham et al., J. Lipid Res., 17: 176-181, (1976). After about 16 hours in LDS containing media, test compounds were added in dimethylsulfoxide vehicle (0.5% v/v final conc.) for the period of time indicated in the data (generally 4 hours). Cholesterol synthesis was then directly determined by the incorporation of 2-14C-acetate (1.8-3.0 mCi/mmol) into digitonin-precipitable sterols essentially as described for the rat hepatocyte method above. Greater than 97% of the radiolabelled sterol isolated by this procedure was cholesterol as judged by HPLC. Percent inhibition was calculated from the average of duplicates or triplicates vs. controls receiving vehicle.
# [1] = tested on: hydroxymethylglutaryl coenzyme A reductase (HMGcoA reductase); assay: HMGCo-A reductase suppression; format: cell-based
# [2] = In vivo cholesterol biosynthesis in hamsters (plasma lipids); set-up: species or system hamsters (male F1 B)
# Procedure: (c) In vivo cholesterol biosynthesis in hamsters was assayed using the following protocol: four groups of hamsters (male F1 B, fed 0.5% cholesterol 10% coconut oil), average weight 120-150 gm, were run in parallel (N=10 per group). The animals were initially fed the atherogenic diet for 20 days to determine their pre-drug plasma lipid levels. They were randomized so that each group had the same average plasma total cholesterol. The three of the four groups were started on their respective drug containing diet (day 0), while the remaining group served as controls.
# [3] = HepG2, read-out: HEPG2 Sterol biosynthesis inhibition @ 10 μM
# [4] = HepG2 cells, 14C-acetate incorporation, generally 4 hours, read-out: HepG2 @ 10 μM (inhibition of cholesterol biosynthesis)
# [5] = plasma, Day 0 (pre-drug), atherogenic diet, N=10 per group
Compound,inhibition at 10 µM (HepG2 cells; [3]) [%],inhibition at 10 µM (HepG2 cells; [4]) [%],HMGCo-A reductase suppression @ 10 μM [1] [%],"reduction in LDL-cholesterol over control ([2]; F1 B hamsters, over control) [%]","reduction in overall cholesterol over control ([2]; F1 B hamsters, over control) [%]","LDL Cholesterol, Day 0 [2, 5] [mg/dL]","Total cholesterol, Day 0 [2, 5] [mg/dL]","LDL Cholesterol, Day 21 ([2]; plasma, Day 21, drug containing diet, control 333 ± 137) [mg/dL]","Total cholesterol, Day 21 ([2]; plasma, Day 21, drug containing diet, control 407 ± 144) [mg/dL]",down-regulation of HMGcoA reductase (in words) ([1]; in words)
"CC(C)=CCCC(C)=CCCC(C)=CCSC(C)(C)Sc1ccc(O)cc1 [Example 11, 4-[[1-Methyl-1-[(3,7,11-trimethyl-2,6,10-dodecatrienyl)thio]ethyl]thio]phenol]",63,63,37,-25,-18,319 ± 89,399 ± 82,256 ± 85,336 ± 90,
"CC(=O)Oc1ccc(SC(C)(C)SCC=C(C)CCC=C(C)CCC=C(C)C)c(C)c1 [Example 15, 3-Methyl-4-[[1-methyl-1-[(3,7,11-trimethyl-2,6,10-dodecatrienyl)thio]ethyl]thio]phenol acetate]",,75,,,,,,,,
"CCOC(=O)C(C)(SCC=C(C)CCC=C(C)CCC=C(C)C)Sc1cc(C)c(O)c(C)c1 (stereo not drawn) [Example 27, Propanoic Acid, 2-[(4-hydroxy-3,5-dimethylphenyl)thio]-2-[(3,7,11-trimethyl-2,6,10-dodecatrienyl)thio]ethyl ester]",79,79,51,,,,,,,down-regulate the key enzyme in the cholesterol biosynthesis
"CC(C)=CCCC(C)=CCCC(C)=CCSC(C)(C)Sc1ccc(F)cc1 [Example 36, 4-Fluoro-1-[[1-methyl-1-[(3,7,11-trimethyl-2,6,10-dodecatrienyl)thio]ethyl]thio]benzene]",,20,,,,,,,,
